Assays:
[1] = Suppression of conditioned avoidance response; format: in vivo; conditions: oral; for suppression of conditioned avoidance response, activity in words: at 100 mg/kg
Text: |Suppression of conditioned |avoidance response | ^7 Albert, et al., Pharmacologist 4, 152 (1962).

[2] = Lethal toxicity (ALD50) and first signs of pharmacologic activity (ATD50) in mice; conditions: mouse, in vivo, oral, groups of 10, given as part of ALD50/ATD50 ratio; for TD50: read-out: ATD50 (dose at which signs of pharmacologic activity are first evidenced)
Procedure: In groups of 10 mice treated variously with geometrically increasing doses of test compound of from 125 mg./kg. to 2,000 mg./kg., the lethal toxicity (ALD50) and the dose at which signs of pharmacologic activity are first evidenced (ATD50) can be estimated. […] The ALD50 /ATD50 ratio (mg. per kg. body wt./mg. per kg. body wt.) for the compound of Procedure 4 is 2,000/125-250 and for that of Procedure 6 is >2,000/8-15.7. The ratio for trazodone is 940/2-4. Thus, the present substances have less than one-half the lethal toxicity of trazodone and from less than one-half to one-fiftieth the propensity for producing overt signs of physiological effect (ATD50) on oral administration to mice. More particularly, the present substances exert less of a depressant effect on the central nervous system as reflected by less deficit in motor coordination, less interference with normal motor activity, and less analgetic effect than trazodone. Laboratory test data with respect to these properties are arranged below.

[3] = CNS depression in mice: antagonism of foot shock induced aggression; format: in vivo; conditions: Mus musculus, oral
Text: Antagonism of foot shock
^5 Tedeschi, et al., J. Pharmacol. & Exptl. Ther. 125, 28 (1959).

[4] = Inhibition of pernicious preening in mice (antipsychotic or analgetic); format: in vivo; conditions: Mus musculus, oral, read-out: ED50, inhibition of pernicious preening (anti psychotic or analgetic)
Text: Inhibition of pernicious
psychotic or analgetic)^6
^6 Wilfon, et al., Federation Proceedings 19, 21 (1960).

[5] = Mouse, tail clip (analgetic); format: in vivo; conditions: oral
Text: ^1 Bianchi, et al., Brit. J. of Pharmacology 9, 280 (1954).

[6] = Reduction of phenylquinone writhing in mice (analgetic); format: in vivo; conditions: Mus musculus, oral
Text: Reduction of phenylquinone
^2 Hendershot, et al., J. Pharmcol. & Exptl. Ther. 125, 237 (1959).

[7] = Prevention of reserpine ptosis in mice (oral pretreatment); format: in vivo; conditions: Mus musculus, test drug oral (per os) before reserpine 2.0 mg./kg. intravenously
[8] = Reduction of spontaneous motor activity in mice; format: in vivo; conditions: oral
[9] = clinical use, vs imipramine; cited from earlier work
[10] = Rotorod method for motor incordination in mice; format: in vivo; conditions: oral
Text: Rotorod method for motor
^4 Kinnaird, et al., J. Pharmacol. & Exptl.
Cutting, et al., Archives Int. Pharmacodyn.

[11] = various animal tests, U.S. Pat. No. 3,381,009; cited from earlier work

## Cc1cc2nn(CCCN3CCN(c4cccc(Cl)c4)CC3)c(=O)n2c2ccccc12 [Procedure 6]
[1]
  suppression of conditioned avoidance response, activity in words: inactive
[2]
  LD50: > 2000 mg/kg
  TD50: 8 to 15.7 mg/kg
[3]
  ED50: 36.5 mg/kg
[4]
  ED50: 62 mg/kg
[5]; at 200 (mg./kg.)
  tail clip (analgetic), activity in words: inactive
[6]
  ED50: 51.8 mg/kg
[7]
  ED50: 27 mg/kg
[8]; at 20, 40, & 80 (mg./kg.)
  reduction of spontaneous motor activity, activity in words: inactive

## O=c1n(CCCN2CCN(c3cccc(Cl)c3)CC2)nc2ccccn12 [trazodone, 2-[3-[4-(3-chlorophenyl)-1-piperazinyl]propyl]-1,2,4-triazolo[4,3-a]pyridin-3(2H)-one, reference compound]
[1]
  ED50: 131 mg/kg
[2]
  LD50: 940 mg/kg
  TD50: 2 to 4 mg/kg
[3]
  ED50: 22.2 mg/kg
[4]
  ED50: 43 mg/kg
[5]
  ED50: 55.5 mg/kg
[6]
  ED50: 21.8 mg/kg
[7]
  ED50: 36 mg/kg
[9]
  clinical antidepressant effectiveness and side effects: antidepressant equivalent in effectiveness to imipramine but with fewer side effects
[10]; mouse, in vivo, read-out: ED50, Rotorod method for motor incordination
  TD50: 44.4 mg/kg
[8]
  AED-0.3, reduction of spontaneous motor activity: 15.3 mg/kg
[11]
  pharmacological actions: tranquilizing action, hypotensive action, and analgesic action

## O=c1n(CCCN2CCN(c3cccc(Cl)c3)CC2)nc2ccc3ccccc3n12 [Procedure 4, 2-[3-[4-(3-Chlorophenyl)-1-piperazinyl]propyl]-1,2,4-triazolo[4,3-a]quinolin-3(2H)-one]
[1]
  suppression of conditioned avoidance response, activity in words: inactive
[2]
  LD50: 2000 mg/kg
  TD50: 125 to 250 mg/kg
[3]
  ED50: 54 mg/kg
[4]
  ED50: 24 mg/kg
[5]
  ED50: 200 mg/kg
[6]
  ED50: 40.5 mg/kg
[7]
  ED50: 29 mg/kg
[10]; at 800 (mg./kg.)
  Rotorod method for motor incordination, activity in words: inactive
[8]
  AED-0.3, reduction of spontaneous motor activity: 80 mg/kg
